# Source: patent US9487504B2, “Imidazolyl analogs as syk inhibitors” (Merck Sharp & Dohme Corp., priority 2012, dated 2016)
# Where two headings read alike, the source gives them in different places.
# Biological target: T1, recombinant human GST-Syk (Homo sapiens, UniProt P43405)
# T1 construct: purchased Carna Biosciences 08-176
# Assay: Homogeneous Time-Resolved Fluorescence (HTRF) assay for the recombinant human Syk enzyme
# Type: biochemical
# Details: ATP 25 μM, 10-dose titration
# In short: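 Recombinant GST-hSyk ([…]) was preincubated 10 min at room temperature with inhibitor (0.1% DMSO) in Tris pH 7.5, then reacted for 45 min with 250 nM biotinylated peptide, 5 mM Mg and 25 μM ATP. Phosphorylation was detected by HTRF (Eu-anti-phosphotyrosine/SA-APC). IC50 was derived from a 10-dose titration (10 μM–0.508 nM) with a 4-parameter fit.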
IC50 (read-out: rhSYK Activity) [nM],IC50 (read-out: rhSYK IC50) [nM],Compound
≤ 100,–,"Cc1ccnc(Nc2cc(C)cc(-n3cnc(C(C)(C)O)c3)n2)c1 [Example 87, 2-(1-{4-methyl-6-[(4-methylpyridin-2-yl)amino]pyridin-2-yl}-1H-imidazol-4-yl)propan-2-ol]"
≤ 100,9,"Cc1cc(Nc2nccc(C(F)(F)F)n2)cc(-n2cnc(C3(O)CCN(C(N)=O)CC3)c2)c1 [Example 117, 4-Hydroxy-4-[1-(3-methyl-5-{[4-(trifluoromethyl)pyrimidin-2-yl]amino}phenyl)-1H-imidazol-4-yl]piperidine-1-carboxamide]"
≤ 100,–,"OC(c1cn(-c2cccc(Nc3cc(C(F)(F)F)ccn3)n2)cn1)(C1CC1)C1CC1 [Example 83, dicyclopropyl[1-(6-{[4-(trifluoromethyl)-pyridin-2-yl]amino}pyridin-2-yl)-1H-imidazol-4-yl]methanol]"
≤ 100,0.861,"Cc1cc(Nc2cc(C(F)(F)F)ccn2)nc(-n2cnc([C@]3(O)CC[C@@H](CC(=O)O)CC3)c2)c1 [Example 14, {cis-4-hydroxy-4-[1-(4-methyl-6-{[4-(trifluoromethyl)pyridin-2-yl]amino}pyridin-2-yl)-1H-imidazol-4-yl]cyclohexyl}acetic acid]"
≤ 100,–,"COC(=O)c1ccc2c(c1)ncn2-c1cc(C)cc(Nc2nccc(C)n2)c1 [Example 73, Methyl 1-{3-methyl-5-[(4-methyl-pyrimidin-2-yl)amino]phenyl}-1H-benzimidazole-5-carboxylate]"
–,12.7,"CCOC(=O)C1CCC(O)(c2cn(-c3cc(C)cc(Nc4nccc(C(F)(F)F)n4)c3)cn2)CC1 (stereo not drawn) [1, Step 1]"
≤ 100,1.36,"Cc1cc(Nc2cc(C(F)(F)F)ccn2)nc(-n2cnc([C@]3(O)CC[C@@H](O)CC3)c2)c1 [Example 62, cis-1-[1-(4-methyl-6-{[4-(trifluoromethyl)pyridin-2-yl]amino}pyridin-2-yl)-1H-imidazol-4-yl]cyclohexane-1,4-diol]"
≤ 100,–,"COC(=O)c1cn(-c2cc(C)cc(Nc3nccc(C(F)(F)F)n3)c2)cn1 [Example 98, Methyl 1-(3-methyl-5-{[4-(trifluoromethyl)-pyrimidin-2-yl]amino}phenyl)-1H-imidazole-4-carboxylate]"
≤ 100,19.7,"Cc1cc(Nc2nccc(C(F)(F)F)n2)cc(-n2cnc(C3(O)CCNC(=O)CC3)c2)c1 (stereo not drawn) [Example 109, 5-hydroxy-5-[1-(3-methyl-5-{[4-(trifluoromethyl)pyrimidin-2-yl]amino}phenyl)-1H-imidazol-4-yl]azepan-2-one]"
≤ 100,–,"CCOC(=O)[C@H]1CC[C@@](O)(c2cn(-c3cc(C)cc(Nc4cc(C(F)(F)F)ccn4)n3)cn2)CC1 [Example 28, Ethyl trans-4-hydroxy-4-[1-(4-methyl-6-{[4-(trifluoromethyl)pyridin-2-yl]amino}pyridin-2-yl)-1H-imidazol-4-yl]cyclohexane-carboxylate]"
≤ 100,–,"Cc1cc(Nc2nccc(C(F)(F)F)n2)cc(-n2cnc(C3(O)CCC(C(=O)N4CCCC4)CC3)c2)c1 (stereo not drawn) [Example 31, cis-1-[1-(3-methyl-5-{[4-(trifluoromethyl)pyrimidin-2-yl]amino}phenyl)-1H-imidazol-4-yl]-4-(pyrrolidin-1-ylcarbonyl)cyclohexanol]"
≤ 100,–,"CC(C)(O)c1cn(-c2cccc(Nc3cc(C(F)(F)F)ccn3)n2)cn1 [Example 94, 2-[1-(6-{[4-(trifluoromethyl)-pyridin-2-yl]amino}-pyridin-2-yl)-1H-imidazol-4-yl]propan-2-ol]"
≤ 100,1.68,"Cc1cc(Nc2nccc(C(F)(F)F)n2)cc(-n2cnc(-c3ccc(C(=O)O)cc3)c2)c1 [Example 71, 4-[1-(3-methyl-5-{[4-(trifluoromethyl)pyrimidin-2-yl]amino}-phenyl)-1H-imidazol-4-yl]benzoic acid]"
≤ 100,–,"Nc1cc(Nc2cc(Cl)ccn2)nc(-n2cnc(C(O)(C3CC3)C3CC3)c2)c1 [Example 79, (1-{4-amino-6-[(4-chloropyridin-2-yl)amino}pyridin-2-yl}-1H-imidazol-4-yl)(dicyclopropyl)methanol]"
100 to 1000,–,"COC(=O)c1cn(-c2cccc(Nc3cc(Cl)ccn3)n2)cn1 [Example 69, Methyl 1-{6-[(4-chloropyridin-2-yl)amino]pyridin-2-yl}-1H-imidazole-4-carboxylate]"
≤ 100,–,"Cc1cc(Nc2nccc(C(F)(F)F)n2)cc(-n2cnc(CC#N)c2)c1 [Example 77, [1-(3-methyl-5-{[4-(trifluoromethyl)pyrimidin-2-yl]amino}-phenyl)-1H-imidazol-4-yl]acetonitrile]"
≤ 100,1.78,"Cc1cc(Nc2nccc(C(F)(F)F)n2)cc(-n2cnc(C(C)(O)[C@H]3CC[C@H](C(=O)O)CC3)c2)c1 (relative stereo) [Example 10, trans-4-{1-hydroxy-1-[1-(3-methyl-5-{[4-(trifluoromethyl)pyrimidin-2-yl]amino}phenyl)-1H-imidazol-4-yl]ethyl}-cyclohexanecarboxylic acid]"

IC50 (read-out: rhSYK Activity) [nM],IC50 (read-out: rhSYK IC50) [nM],Compound
≤ 100,–,Nc1cc(Nc2cc(C(F)(F)F)ccn2)nc(-n2cnc(C(O)(C3CC3)C3CC3)c2)c1 [Example 84]
≤ 100,–,"Cc1cc(Nc2nccc(C(F)(F)F)n2)cc(-n2cnc(CCC(=O)O)c2)c1 [Example 76, 3-[1-(3-methyl-5-{[4-(trifluoromethyl)pyrimidin-2-yl]amino}-phenyl)-1H-imidazol-4-yl]propanoic acid]"
≤ 100,–,"Cc1cc(Nc2ncc(F)c(C3CC3)n2)cc(-n2cnc([C@]3(O)CC[C@@H](O)CC3)c2)c1 [Example 59, cis-1-(1-{3-[(4-cyclopropyl-5-fluoropyrimidin-2-yl)amino]-5-methylphenyl}-1H-imidazol-4-yl)cyclohexane-1,4-diol]"
≤ 100,–,"Cc1cc(Nc2nccc(C(F)(F)F)n2)cc(-n2cnc([C@]3(O)CC[C@@H](C(=O)N(C)C)CC3)c2)c1 [Example 32, cis-4-hydroxy-N,N-dimethyl-4-[1-(3-methyl-5-{[4-(trifluoromethyl)-pyrimidin-2-yl]amino}-phenyl)-1H-imidazol-4-yl]cyclohexane-carboxamide]"
≤ 100,–,"OC(c1cn(-c2cccc(Nc3cc(Cl)ccn3)n2)cn1)(C1CC1)C1CC1 [Example 81, (1-{6-[(4-chloropyridin-2-yl)amino]pyridin-2-yl}-1H-imidazol-4-yl)(dicyclopropyl)-methanol]"
≤ 100,–,"Cc1cc(Nc2nccc(C(F)(F)F)n2)cc(-n2cnc(C(C)(C)O)c2)c1 [Example 99, 2-[1-(3-methyl-5-{[4-(trifluoromethyl)pyrimidin-2-yl]amino}phenyl)-1H-imidazol-4-yl]propan-2-ol]"
≤ 100,3.7,"Cc1cc(Nc2nccc(C(F)(F)F)n2)cc(-n2cnc([C@]3(O)CC[C@@H](O)CC3)c2)c1 [Example 37, Cis-1-[1-(3-methyl-5-{[4-(trifluoromethyl)pyrimidin-2-yl]amino}phenyl)-1H-imidazol-4-yl]cyclohexane-1,4-diol]"
≤ 100,–,"COC(=O)C[C@H]1CC[C@](O)(c2cn(-c3cc(C)cc(Nc4nccc(C(F)(F)F)n4)c3)cn2)CC1 [Example 18, Methyl {cis-4-hydroxy-4-[1-(3-methyl-5-{[4-(trifluoromethyl)pyrimidin-2-yl]amino}phenyl)-1H-imidazol-4-yl]-cyclohexyl}acetate]"
≤ 100,–,"Cc1cc(Nc2nccc(C(F)(F)F)n2)cc(-n2cnc(C3(O)CCC(O)CC3)c2)c1 (stereo not drawn) [Example 65, trans-1-[1-(3-methyl-5-{[4-(trifluoromethyl)pyrimidin-2-yl]amino}phenyl)-1H-imidazol-4-yl]cyclohexane-1,4-diol]"
≤ 100,–,"Cc1cc(Nc2cc(C(F)(F)F)ccn2)nc(-n2cnc([C@]3(O)CC[C@H](C(=O)O)CC3)c2)c1 [Example 26, trans-4-hydroxy-4-[1-(4-methyl-6-{[4-(trifluoromethyl)pyridin-2-yl]amino}pyridin-2-yl)-1H-imidazol-4-yl]cyclohexanecarboxylic acid]"
≤ 100,–,"Cc1cc(Nc2nccc(C3CC3)n2)cc(-n2cnc(C[C@H](O)C(=O)O)c2)c1 [Example 8, (2S)-3-(1-{3-[(4-cyclopropylpyrimidin-2-yl)amino]-5-methylphenyl}-1H-imidazol-4-yl)-2-hydroxypropanoic acid]"
100 to 1000,–,"Cc1cc(Nc2nccc(C)n2)cc(-n2cnc3cc(C(=O)O)ccc32)c1 [Example 72, 1-{3-methyl-5-[(4-methylpyrimidin-2-yl)amino]phenyl}-1H-benzimidazole-5-carboxylic acid]"
≤ 100,–,"Cc1cc(Nc2nccc(C(F)(F)F)n2)cc(-n2cnc([C@@]3(O)CC[C@@](C)(C(=O)O)C[C@@H]3O)c2)c1 (single isomer, unassigned) [5 (isomer 1)]"
≤ 100,–,"Cc1cc(Nc2nccc(C(F)(F)F)n2)cc(-n2cnc([C@]3(O)CC[C@@](C)(C(=O)O)C[C@H]3O)c2)c1 (single isomer, unassigned) [5 (isomer 2)]"
≤ 100,–,"Cc1cc(Nc2nccc(C(F)(F)F)n2)cc(-n2cnc(C(C)(O)[C@H]3CC[C@H](C(N)=O)CC3)c2)c1 (relative stereo) [Example 7, trans-4-{1-hydroxy-1-[1-(3-methyl-5-{[4-(trifluoromethyl)pyrimidin-2-yl]amino}phenyl)-1H-imidazol-4-yl]ethyl]cyclohexanecarboxamide]"
≤ 100,0.757,"Cc1cc(Nc2cc(C(F)(F)F)ccn2)nc(-n2cnc([C@]3(O)CC[C@@H](C(=O)O)CC3)c2)c1 [Example 27, cis-4-hydroxy-4-[1-(4-methyl-6-{[4-(trifluoromethyl)pyridin-2-yl]amino}pyridin-2-yl)-1H-imidazol-4-yl]cyclohexanecarboxylic acid]"

Compound,IC50 (read-out: rhSYK Activity) [nM],IC50 (read-out: rhSYK IC50) [nM]
"Cc1cc(Nc2nccc(C(F)(F)F)n2)cc(-n2cnc(C3(O)CCC(CC(N)=O)CC3)c2)c1 (stereo not drawn) [Example 6, 2-{cis-4-hydroxy-4-[1-(3-methyl-5-{[4-(trifluoromethyl)pyrimidin-2-yl]amino}phenyl)-1H-imidazol-4-yl]cyclohexyl)acetamide]",≤ 100,–
